Measured values: the NIST ThermoML archive (doi:10.1021/je050060q)

Conditions: Liquid; for mass density: Pycnometric method

CCCCCCCCCCCCCCCC [hexadecane]
Conditions	mass density [kg/m3]	speed of sound [m/s]
293.15 K	773.38	1357
298.15 K	769.97	1338
303.15 K	766.55	–
308.15 K	763.12	1301
313.15 K	759.68	1283
318.15 K	756.24	1265
323.15 K	752.79	1246
328.15 K	749.33	1228
333.15 K	745.86	1211
338.15 K	742.39	1193
343.15 K	738.91	1176
348.15 K	735.42	1158
353.15 K	731.93	1141
358.15 K	728.43	1124
363.15 K	724.92	1107
368.15 K	721.4	1090
373.15 K	717.88	1074

CCCCCC [hexane]
Conditions	mass density [kg/m3]	speed of sound [m/s]
293.15 K	659.44	1098
298.15 K	654.93	1076
303.15 K	650.36	1054
308.15 K	645.74	1032
313.15 K	641.08	1010
318.15 K	636.37	988
323.15 K	631.61	966
328.15 K	626.81	944
333.15 K	621.95	921
338.15 K	–	900
343.15 K	–	878
348.15 K	–	856
353.15 K	–	834
358.15 K	–	812
363.15 K	–	790
368.15 K	–	768
373.15 K	–	747
